Measurements from patent US11510911B2 (AJOU UNIVERSITY INDUSTRY—ACADEMIC COOPERATION FOUNDATION, priority 2017, dated 2022).

Assays:
[1] = system: HepG2 cells; test: Cell viability (WST-1 assay), HepG2 cells; type: cell-based; details: Homo sapiens
Description: (§1) Human liver cancer cells of Hep3B, Huh7, HepG2 and PLC/PRF5 were cultured in DMEM supplemented with 10% FBS, 100 U/ml penicillin and 100 μg/ml streptomycin.
(§2) A lentiviral construct expressing STAT1 shRNA, p65 shRNA and LCN2 shRNA was purchased from Sigma-Aldrich. Wild-type SULF2, SULF2-N491K, wild-type ERC1, ERC1-H721Q, wild-type NTRK3, NTRK3-N522K, wild-type SHC1 and SHC1-SHC1-P55 cDNA constructs were cloned into MCS-EF1-Puro (System Biosciences, Mountain), the lentiviral vectors for cDNA expression. All lentiviral vectors were transfected into 293 TN cells (System Biosciences) using the Lipofectamine 3000 transfection reagent (Invitrogen, Waltham, Mass., USA). Two days after lentiviral plasmid transfection, particles were collected and used to infect HCC cells. The HDD cells infected with lentivirus were selected using puromycin for 1 week.
(§3) For cell proliferation analysis, 5×10^3 cells were divided into 96-well plates and cultured in DMEM containing various concentrations of anti-cancer drugs and 5% FBS for 48 hours. Cell viability was measured through WST-1 assay (Roche, Gangnam-gu, Seoul, Korea) and four repetitions of each experiment were performed at least 3 times. Cell migration analysis was performed in a 24-well Boyden chamber (8 μm pore size; Coastal; Corning Life Sciences, Lowell, Mass.), 1×10^5 cells were suspended in serum-free 0.2 ml DMEM and added to the upper chamber inlet, and the lower chamber was filled with 0.6 ml DMEM/10% fetal bovine serum. After 6 hours, the cells on the bottom of the membrane were fixed, stained and counted at ×200 magnification with four microscopes.

[2] = system: Huh7 cells; test: Cell viability (WST-1 assay), Huh7 cells; type: cell-based, Human
Description: as §1, §2, §3

[3] = system: LCN2 mRNA; test: LCN2 mRNA expression by qRT-PCR in Hep3B vector, SULF2-WT and SULF2-N491K cells; type: cell-based, Human
Description: (§4) Each cell was collected using an RNeasy kit (Qiagen, Venlo, Netherlands) and total RNA was isolated. The mRNA was reverse-transcribed into cDNA using a PrimeScript RT kit (Takara, Shiga, Japan), and then PCR was conducted using the CFX96 Real-Time PCR Detection System (Bio-Rad Laboratories, Hercules, Calif., USA) equipped with SsoAdvanced Universal Supermixes (Bio-Rad). The analysis of each sample was run at least three times for each experiment, and the data for the number was reported in a relative quantity: Mean value (standard deviation) of 2^−ΔΔCT±S.D.

[4] = system: Hep3B cells; test: Cell viability / proliferation (WST-1 assay), Hep3B cells expressing vector, SULF2-WT or SULF2-N491K; type: cell-based, Human; details: for cell proliferation: 0.01-10 μM
Description: as §1, §2
Then, in order to identify whether or not the SULF2 mutation changed drug susceptibility, an overexpression system for wild-type SULF2 and SULF2-N491K mutants in Hep3B cells that rarely expressed endogenous SULF2 was established (Lai J P et al., Hepatology 47: 1211-22, 2008).
as §3

[5] = system: Hep3B cells; test: Transwell (Boyden chamber) cell migration assay, Hep3B cells; type: cell-based, Human
Description: as §3

[6] = system: amphiregulin mRNA; test: Amphiregulin mRNA level by qRT-PCR in Hep3B vector, SULF2-WT and SULF2-N491K cells; type: cell-based, Human; details: 2 μM sorafenib, 72 hours
Description: as §4

[7] = system: SULF2 mRNA; test: SULF2 mRNA expression by qRT-PCR in HepG2 and Huh7 cells; type: cell-based, Human; details: sorafenib up to 10 μM for 1, 2, 4 and 12 weeks
Description: as §4

[8] = system: Hep3B-SR, SULF2-WT-SR, HepG2-SR and Huh7-SR cells; test: Cell viability of sorafenib-resistant (SR) liver cancer cells; type: cell-based, Human; details: LCN2 siRNA 24 hours, then 5 μM sorafenib 48 hours
Description: as §3
After culture for several months, the sorafenib-resistant (SR) cell lines, Vector-SR, SULF2-WT-SR and SULF2-N491K-SR were obtained.
Thus, control siRNA and siRNA for human LCN2 were purchased from Santa Cruz Biotechnology, and each cell was transfected with siRNA using a transfection reagent (Santa Cruz) according to the manufacturer's instructions.

[9] = system: EGFR; test: Western blotting of EGFR downstream signaling after amphiregulin treatment; type: cell-based, Human; details: SULF2-WT cells, amphiregulin 50 ng/ml
Description: In order to prepare total cell lysate, cells were lysed in a high-salt-content lysis buffer (20 mM Tris-HCl [pH 8.0], 1% Triton X-100, 2 mM EDTA and 1 mM phenylmethylsulfonyl fluoride), incubated on ice for 20 minutes, and centrifuged for 20 minutes to remove cell debris. A total of 20 μg of total cell lysate was used for SDS-polyacrylamide gel electrophoresis, and proteins were transferred to a nitrocellulose membrane and incubated overnight with each antibody at 4° C. The membrane was then incubated at room temperature for 1 hour with a peroxidase-conjugated secondary antibody (PIERCE, Rockford, Ill., USA), and signals were detected using a chemiluminescence detection kit (PIERCE).
Thus, in order to elucidate the mechanism by which sorafenib-mediated EGFR activation is differentially regulated between SULF2-WT and SULF2-N491K, the effect of exogenous stimulation of EGFR by treatment with recombinant human amphiregulin (rhAR) on three types of cells was compared.

In the case of `Nc1ncnc2c1c(-c1cccc(OCc3ccccc3)c1)cn2[C@H]1C[C@@H](CN2CCC2)C1` [AEW541], the IC50 ([1]; HepG2, HepG2 cells expressing ERC1-H721Q) is reported as 2630 nM and the IC50 ([1]; HepG2, HepG2 cells expressing ERC1-WT) is reported as 4250 nM.

`CN[C@@H](C)C(=O)N[C@H](C(=O)N1CC[C@H]2CCN(CCc3ccccc3)C[C@H]21)C1CCCCC1` [LBW242] showed an IC50 ([2]; Huh7 cells expressing SHC1-P5S) of 2.26 µM and an IC50 ([2]; Huh7 cells expressing SHC1-WT) of 4.26 µM.

In the case of `N#CC(=C(/N)Sc1ccccc1N)/C(C#N)=C(/N)Sc1ccccc1N` [MEK inhibitor], the LCN2 expression ([3]; vector or SULF2-N491K cells, U0126 10 μM, 48 hours) is reported as “did not inhibit”.

`CCN(CC)CCCCNc1ncc2cc(-c3cc(OC)cc(OC)c3)c(NC(=O)NC(C)(C)C)nc2n1` [PD173074] was tested, and the cell proliferation ([4]; SULF2-WT cells, 48 hours) was “did not inhibit”, the cell proliferation ([4]; vector and SULF2-N491K cells, 48 hours) was “inhibited cell proliferation” and the cell migration ([5]; vector, SULF2-WT or SULF2-N491K cells treated with PD173074) was “inhibition of great migration was not found”.

Work on `CNC(=O)c1cc(Oc2ccc(NC(=O)Nc3ccc(Cl)c(C(F)(F)F)c3)cc2)ccn1` [Sorafenib] yielded an IC50 ([2]; Homo sapiens, Huh-7, 48 h, Huh7 cells, NT shRNA, 48 hours) of 10.2 µM, an IC50 ([2]; Homo sapiens, Huh-7, 48 h, Huh7 cells, SULF2 knockdown (SULF2 shRNA), 48 hours) of 6.17 µM and an IC50 ([2]; Homo sapiens, Huh-7, Huh7 cells expressing NTRK3-N522K) of 5.8 µM. The IC50 ([2]; Homo sapiens, Huh-7, Huh7 cells expressing NTRK3-WT) was 7.64 µM, the IC50 ([2]; Homo sapiens, Huh-7, Huh7 cells, sorafenib in combination with 200 μM OKN-007) was 5.06 µM and the IC50 ([1]; HepG2, HepG2 cells, NT shRNA) was 4970 nM. For the same molecule, the IC50 ([1]; HepG2, HepG2 cells, SULF2 knockdown (SULF2 shRNA)) was 2380 nM, the IC50 ([1]; HepG2, HepG2 cells, sorafenib in combination with OKN-007) was 1760 nM and the “susceptibility to sorafenib with OKN-007 treatment” value ([4]; Hep3B vector and SULF2-N491K cells, 48 hours) was “did not change”. It also gave an IC50 ([4]; Hep3B-SULF2-WT cells) of 7.51 µM, an IC50 ([4]; Homo sapiens, Hep3B, 48 h, Hep3B cells expressing wild-type SULF2, sorafenib in combination with OKN-007, 48 hours) of 3.17 µM and an IC50 ([4]; Homo sapiens, Hep3B, 48 h, SULF2-WT cells with knockdown of LCN2 by shRNA) of 3.95 µM. For the same molecule, the IC50 ([4]; Homo sapiens, Hep3B, Hep3B cells expressing SULF2-N491K) was 3.54 µM, the IC50 ([4]; Homo sapiens, Hep3B, Hep3B-SULF2-WT cells) was 7.51 µM and the IC50 ([4]; Homo sapiens, Hep3B, Hep3B-vector cells) was 3.37 µM. The “LCN2 mRNA expression” value ([3]; SULF2-WT cells, 2 μM sorafenib, 72 hours) was “significantly induced”, the “LCN2 mRNA expression” value ([3]; vector and SULF2-N491K cells, 2 μM sorafenib, 72 hours) was “induced only a small amount” and the amphiregulin expression [6] was “significantly increased”. The “SULF2 mRNA expression” value [7] was “significantly increased in a time-dependent manner” and the “sorafenib susceptibility after LCN2 knockdown” value [8] was “restoration of sorafenib susceptibility”.

For `COc1cc2ncnc(Nc3ccc(F)c(Cl)c3)c2cc1OCCCN1CCOCC1` [gefitinib], the cell growth ([4]; SULF2-WT cells compared with vector and SULF2-N491K cells, 48 hours) was “significantly inhibited”, the “LCN2 mRNA expression” value ([3]; SULF2-WT cells, 48 hours, OKN-007 200 μM, gefitinib 5 μM) was “significantly inhibited” and the cell migration ([5]; SULF2-WT cells compared with vector and SULF2-N491K cells) was “significantly inhibited”.

B1: amphiregulin: recombinant human amphiregulin, the EGFR ligand, from R & D systems (protein, UniProt P15514 101-187, looked up)
Amphiregulin: SVRVEQVVKPPQNKTESENTSDKPKRKKKGGKNGKNRRNRKKKNPCNAEFQNFCIHGECKYIEHLEAVTCKCQQEYFGERCGEKSMK
With B1 the “activation of EGFR and downstream signaling pathways including STAT1 and ERK” value [9] was “elevated activation” and the “p65 and LCN2 protein levels” value [9] was “significantly increased”.
